Laboratory results taken from EP3521435A1, “A HIGH STRINGENCY SELECTION SYSTEM FOR PROTEIN EXPRESSION IN PROLINE-AUXOTROPHIC CELLS” (Bayer AG, priority 2018, dated 2019).

System: CHO-K1 cells
Test: Flow cytometric analysis of GFP expression (MFI, high fluorescing cells) in stably selected cell populations
Type: cell-based, Chinese hamster
Details: for improvement of MFI as compared to Puromycin selected cultures / increase of the frequency of high fluorescing cells as compared to Puromycin selected cultures: DHP in proline-free medium
Method: To efficiently test the impact of different procedures on improving selection stringency, experimental testing in stable cell populations was performed. As test molecules, enhanced green fluorescent protein (GFP) as well as a human IgG1 were chosen. CHO-K1 cells adapted to growth in suspension in defined medium were obtained from SAFC and cultivated in EX-CELL CD CHO Fusion medium (SAFC 14365C). Custom-made EX-CELL CD CHO Fusion medium without L-Proline (Pro) and without L-Ornithine (Orn) ("proline-free medium") was obtained from SAFC. The expression vector system was based on modified versions of "CET 1019 AS-puro-SceI" and "CET 1019 AD-puro-SceI" for GFP and human IgG1, respectively, from Merck-Millipore, containing the Puromycin selection marker (Puromycin N-acetyl-transferase) known to exert a high selection stringency. To minimize variations in cell populations derived from using different transfections or different vectors, the first series of experiments were conducted using vectors into which a P5CS expression cassette was cloned upstream of a UCOE element, in addition to the Puromycin selection marker present downstream of a gene of interest. This way, it was possible to pool different transfections using the same vector to obtain a common starting point, and split the mixture according to different selection conditions, minimizing any variations that are not due to selection conditions themselves. Expression of long and short isoform of murine P5CS (Protein: Delta-1-pyrroline-5-carboxylate synthase; Gene: Aldh18a1; UniProtKB accession number: Q9Z110-1 & Q9Z110-2) was driven by a SV40 promoter. A SV40 polyadenylation sequence was used at the 3' end of the gene. More details can be found in Table 1. Typically, CHO cells were cultivated in EX-CELL CD CHO Fusion medium containing 6 mM GlutaMAX (Thermo Fisher, 35050-38) ("CD-Fusion medium") at 37 °C with 5% CO2. Cells were grown to logarithmic phase under shaking conditions for transfections. 1e7 cells/cuvette were transfected using nucleofection (Amaxa Nucleofector II, following the manufacturer's recommendations) with 5 µg of linearized DNA. After transfection, cells were taken up in 1 ml medium and transferred into 1 well of a 6 well microtiter plate (MTP) already containing 1 ml medium. The cells were incubated for 24 h without shaking, after which 9 ml medium were added and cells were washed (either in standard or proline-free medium). Multiple transfections were pooled, if applicable. Cells were adjusted to 2e5 viable cells/ml and 10 ml were transferred to T-25 flasks. Reference cell populations were selected using 10 µg/ml Puromycin in CD-Fusion medium. For P5CS-based selection, EX-CELL CD CHO Fusion medium (custom-made, SAFC) containing 6 mM GlutaMAX without proline and without ornithine was used ("proline-free" or "CD-Fusion w/o Pro" medium), with or without additional selection pressure.
Cell viability of the different populations was monitored over time. As soon as cell populations appeared to recover from selection pressure, cells were transferred to Shake Flask or TubeSpins for expansion in suspension under shaking conditions. Subsequently, stable cell populations transfected with IgG were seeded at 2e5 viable cells/ml for batch fermentation without selection pressure (i.e. standard CD-Fusion medium containing proline and no other selective agents). The cells were cultivated for 5-10 days, viable cell densities and productivity were monitored over time. IgG titers were determined using Poros A-HPLC method. Typically, final batch titers were recorded at a time point at which majority of cultures had around 70% viability. Stable cell populations transfected with GFP vector were subjected to analysis by flow cytometry using Guava easyCyte 8HT Benchtop Flow Cytometer (Millipore). 250 µl of cell culture were transferred to 96 MTP and washed with PBS. Dead cells were excluded from analysis using propidium iodide (PI). […]

[1] = Table 11, day 19 post-transfection, pJF1555, CD-Fusion + 10 µg/ml Puromycin
[2] = Table 11, day 19 post-transfection, pJF1555, CD-Fusion w/o Pro + 0.25mM Pro + 10 µg/ml Puromycin
[3] = Table 13, day 19 post-transfection, pJF1555, CD-Fusion + 10 µg/ml Puromycin
[4] = Table 13, day 19 post-transfection, pJF1555, CD-Fusion w/o Pro + 0.25 mM Pro + 10 µg/ml Puromycin
[5] = Table 13, day 19 post-transfection, pJF1576 (control, human IgG1 vector), CD-Fusion + 10 µg/ml Puromycin
[6] = day 15 post-transfection, pJF1555, CD Fusion + 10 µg/ml Puromycin
[7] = day 15 post-transfection, pJF1555, CD-Fusion w/o Pro + 10 µg/ml Puromycin
[8] = day 15 post-transfection, pJF1555, CD-Fusion w/o Pro + 0.25 mM Pro + 10 µg/ml Puromycin
[9] = day 20 post-transfection, pJF1556, CD Fusion + 10 µg/ml Puromycin
[10] = day 20 post-transfection, pJF1556, CD-Fusion w/o Pro + 10 µg/ml Puromycin
[11] = day 20 post-transfection, pJF1556, CD-Fusion w/o Pro + 0.25 mM Pro + 10 µg/ml Puromycin
[12] = day 22 post-transfection, pJF2053, CD-Fusion + 10 µg/ml Puromycin
[13] = day 22 post-transfection, pJF2222, CD-Fusion + 10 µg/ml Puromycin
[14] = day 29 post-transfection, pJF2053, CD-Fusion + 10 µg/ml Puromycin
[15] = Table 11, day 19 post-transfection, pJF1555, CD-Fusion w/o Pro + 0.2 mM DHP
[16] = Table 13, day 19 post-transfection, pJF1555, CD-Fusion w/o Pro + 0.05 mM DHP
[17] = Table 13, day 19 post-transfection, pJF1555, CD-Fusion w/o Pro + 0.1 mM DHP
[18] = Table 13, day 19 post-transfection, pJF1555, CD-Fusion w/o Pro + 0.2 mM DHP
[19] = Table 13, day 19 post-transfection, pJF1555, CD-Fusion w/o Pro + 0.4 mM DHP
[20] = day 22 post-transfection, pJF2055, CD-Fusion w/o Pro + 0.02 mM DHP
[21] = day 22 post-transfection, pJF2055, CD-Fusion w/o Pro + 0.03 mM DHP
[22] = day 22 post-transfection, pJF2055, CD-Fusion w/o Pro + 0.04 mM DHP
[23] = day 22 post-transfection, pJF2055, CD-Fusion w/o Pro + 0.06 mM DHP
[24] = day 22 post-transfection, pJF2055, CD-Fusion w/o Pro + 0.07 mM DHP
[25] = day 22 post-transfection, pJF2055, CD-Fusion w/o Pro + 0.08 mM DHP
[26] = day 22 post-transfection, pJF2303, CD-Fusion w/o Pro + 0.02 mM DHP
[27] = day 22 post-transfection, pJF2303, CD-Fusion w/o Pro + 0.04 mM DHP
[28] = day 22 post-transfection, pJF2303, CD-Fusion w/o Pro + 0.06 mM DHP
[29] = day 22 post-transfection, pJF2303, CD-Fusion w/o Pro + 0.08 mM DHP
[30] = day 22 post-transfection, pJF2303, CD-Fusion w/o Pro + 0.2 mM DHP
[31] = day 22 post-transfection, pJF2303, CD-Fusion w/o Pro + 0.3 mM DHP
[32] = day 22 post-transfection, pJF2303, CD-Fusion w/o Pro + 0.4 mM DHP
[33] = day 22 post-transfection, pJF2303, CD-Fusion w/o Pro + 0.5 mM DHP
[34] = day 29 post-transfection, pJF2460, CD-Fusion w/o Pro + 0.01 mM DHP
[35] = day 29 post-transfection, pJF2460, CD-Fusion w/o Pro + 0.03 mM DHP

SMILES: COc1ccc(C[C@H](N)C(=O)N[C@H]2[C@@H](O)[C@H](n3cnc4c(N(C)C)ncnc43)O[C@@H]2CO)cc1 [Puromycin]
- Frequency of high fluorescing cells (Table 9, day 15 post-transfection, pJF1555, CD-Fusion w/o Pro + 0.25 mM Pro + 10 µg/ml Puromycin): 4.3%
- Frequency of high fluorescing cells [1]: 3.4%
- Median Fluorescence Intensity (MFI) (yellow) [1]: 13092
- Frequency of high fluorescing cells [2]: 3.6%
- Median Fluorescence Intensity (MFI) (yellow) [2]: 12860
- Frequency of high fluorescing cells [3]: 1.0%
- Median Fluorescence Intensity (MFI) (yellow) [3]: 6167
- Frequency of high fluorescing cells [4]: 1.5%
- Median Fluorescence Intensity (MFI) (yellow) [4]: 6625
- Frequency of high fluorescing cells [5]: 0.1%
- Median Fluorescence Intensity (MFI) (yellow) [5]: 9
- Frequency of high fluorescing cells [6]: 5.1%
- Median Fluorescence Intensity (MFI) (yellow) [6]: 5072
- Frequency of high fluorescing cells [7]: 5.1%
- Median Fluorescence Intensity (MFI) (yellow) [7]: 5102
- Frequency of high fluorescing cells [8]: 4.6%
- Median Fluorescence Intensity (MFI) (yellow) [8]: 4394
- Frequency of high fluorescing cells [9]: 6.9%
- Median Fluorescence Intensity (MFI) (yellow) [9]: 7827
- Frequency of high fluorescing cells [10]: 8.7%
- Median Fluorescence Intensity (MFI) (yellow) [10]: 9370
- Frequency of high fluorescing cells [11]: 9.6%
- Median Fluorescence Intensity (MFI) (yellow) [11]: 8783
- Frequency of high fluorescing cells [12]: 2.5%
- Median Fluorescence Intensity (MFI) (yellow) [12]: 11308
- Frequency of high fluorescing cells [13]: 4.2%
- Median Fluorescence Intensity (MFI) (yellow) [13]: 11476
- Frequency of high fluorescing cells [14]: 2.3%
- Median Fluorescence Intensity (MFI) (yellow) [14]: 11502

SMILES: O=C(O)[C@@H]1C=CCN1 [DHP, 3,4-Dehydro-L-Proline]
- increase in MFI as compared to Puromycin-selected population (0.2 mM DHP in proline-free medium, pJF1555, #4 vs #1 of Table 11): 37%
- increase of the frequency of high fluorescing cells (0.2 mM DHP in proline-free medium, pJF1555, vs Puromycin-selected population): 71%
- improvement of MFI of the stable cell population (0.4 mM DHP, pJF1555, Table 13): 3 fold
- increase of the frequency of high fluorescing cells (0.4 mM DHP, pJF1555, Table 13): 8.7-12.6 fold
- Frequency of high fluorescing cells [15]: 5.8%
- Median Fluorescence Intensity (MFI) (yellow) [15]: 17880
- Frequency of high fluorescing cells [16]: 1.7%
- Median Fluorescence Intensity (MFI) (yellow) [16]: 7599
- Frequency of high fluorescing cells [17]: 5.6%
- Median Fluorescence Intensity (MFI) (yellow) [17]: 14267
- Frequency of high fluorescing cells [18]: 5.8%
- Median Fluorescence Intensity (MFI) (yellow) [18]: 13748
- Frequency of high fluorescing cells [19]: 13.0%
- Median Fluorescence Intensity (MFI) (yellow) [19]: 19806
- sensitivity to DHP treatment of cultures transfected with pJF2055 relative to pJF2303 (concentration ranges for DHP giving improvement): about 10 fold
- Frequency of high fluorescing cells [20]: 17.3%
- Median Fluorescence Intensity (MFI) (yellow) [20]: 24032
- Frequency of high fluorescing cells [21]: 18.5%
- Median Fluorescence Intensity (MFI) (yellow) [21]: 22607
- Frequency of high fluorescing cells [22]: 31.3%
- Median Fluorescence Intensity (MFI) (yellow) [22]: 29703
- Frequency of high fluorescing cells [23]: 6.9%
- Median Fluorescence Intensity (MFI) (yellow) [23]: 15210
- Frequency of high fluorescing cells [24]: 8.7%
- Median Fluorescence Intensity (MFI) (yellow) [24]: 12393
- Frequency of high fluorescing cells [25]: 9.3%
- Median Fluorescence Intensity (MFI) (yellow) [25]: 9617
- Frequency of high fluorescing cells [26]: 3.3%
- Median Fluorescence Intensity (MFI) (yellow) [26]: 12080
- Frequency of high fluorescing cells [27]: 5.7%
- Median Fluorescence Intensity (MFI) (yellow) [27]: 15503
- Frequency of high fluorescing cells [28]: 3.2%
- Median Fluorescence Intensity (MFI) (yellow) [28]: 12536
- Frequency of high fluorescing cells [29]: 3.7%
- Median Fluorescence Intensity (MFI) (yellow) [29]: 14603
- Frequency of high fluorescing cells [30]: 14.7%
- Median Fluorescence Intensity (MFI) (yellow) [30]: 19163
- Frequency of high fluorescing cells [31]: 17.4%
- Median Fluorescence Intensity (MFI) (yellow) [31]: 22030
- Frequency of high fluorescing cells [32]: 24.5%
- Median Fluorescence Intensity (MFI) (yellow) [32]: 26155
- Frequency of high fluorescing cells [33]: 19.6%
- Median Fluorescence Intensity (MFI) (yellow) [33]: 23616
- Frequency of high fluorescing cells [34]: 15.3%
- Median Fluorescence Intensity (MFI) (yellow) [34]: 19951
- Frequency of high fluorescing cells [35]: 43.6%
- Median Fluorescence Intensity (MFI) (yellow) [35]: 31838
- improvement of MFI as compared to Puromycin selected cultures (pJF2055, Table 26): up to 2.6 fold
- increase of the frequency of high fluorescing cells as compared to Puromycin selected cultures (pJF2055, Table 26): 7.4-12.7 fold
- improvement of MFI as compared to Puromycin selected cultures (pJF2303, Table 26): up to 2.3 fold
- increase of the frequency of high fluorescing cells as compared to Puromycin selected cultures (pJF2303, Table 26): 5.8-9.9 fold
- improvement of MFI as compared to Puromycin selected cultures (pJF2460, Table 28): up to 2.8 fold
- increase of the frequency of high fluorescing cells as compared to Puromycin selected cultures (pJF2460, Table 28): up to 19 fold
